Measured values reported in PMC9810167, “Novel dual LSD1/HDAC6 inhibitor for the treatment of cancer” (PLOS ONE, 2023).
Like-named read-outs stand apart in the source and are kept apart here.

Legend:
HEL 92.1.7 = assay: Cell proliferation assay (Alamar Blue); assay type: cell-based, human; details: for EC50: Homo sapiens
Protocol: Cells were seeded in NUNC 96-well tissue culture plates (Life Technologies) in […] culture medium and incubated at 37°C/ 5% CO2 to adhere to plastic for 18–24 h. […] One set of plates (designated for the 144 h read out) were centrifuged at low speed for 30 seconds, and respective compounds were replenished in fresh media and incubated for another 68–72 h at 37°C/ 5% CO2. […] The inhibition curve was then fitted by plotting % inhibition against log concentration in GraphPad Prism 5.0 (GraphPad Software, Inc.) and the GI50 value of compound was determined. Data are representative of at least two independent experiments.

MM1.S xenograft = assay: MM1.S multiple myeloma xenograft model; assay type: in vivo; details: single agents (Bortezomib 0.5 mg/kg IP BIW; Pomalidomide 2.5 mg/kg PO 5x/week)
class I HDACs = test system: class I HDACs; parameters: method as in PMID 22262760; details: read-out: potency on class I HDACs; cited from earlier work

For `N[C@H]1CC[C@H](N[C@@H]2C[C@H]2c2ccccc2)CC1` [Iadademstat], the “anti-proliferative EC50, 72 h” value (HEL 92.1.7; HEL92.1.7, 3 days (72 h) of incubation) was “did not show any measurable anti-proliferative activity” and the “cell growth inhibition reached (plateau)” value (HEL 92.1.7; HEL92.1.7, 6 days of incubation, up to 10 μM) was 50–60%.

With `Nc1cccc2c1C(=O)N(C1CCC(=O)NC1=O)C2=O` (stereo not drawn) [Pomalidomide, reference compound] the tolerability (MM1.S xenograft) was “well tolerated”.

For `O=C(CCCCCCNC(=O)c1cnc(N(c2ccccc2)c2ccccc2)nc1)NO` [Ricolinostat], the IC50 (class I HDACs) is listed as ~0.05 µM, the EC50 (HEL 92.1.7; HEL 92.1.7, read-out: anti-proliferative EC50, HEL92.1.7, 3 days (72 h) of incubation) is listed as 4.4 µM and the EC50 (HEL 92.1.7; HEL 92.1.7, Leukemia, 144 h, read-out: EC50, 144hr) is listed as 3.7 µM.
